Data taken from the supplement of paper PMC10627819.

Experiments:
[1] = system: B. subtilis 168; test: Bliss interaction score (quartile over a dose matrix) (fitness difference); higher = more antagonism (negative = synergy)
Summary of the method: (§1)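 The Bliss score takes observed fitness and subtracts the expected fitness, calculated as a product of single-drug fitness values. Those single-drug values were inferred from the combination data. Fitness is OD595 at entry into stationary phase divided by the plate's robust no-drug mean, capped at 1, and the score is summarised by quartiles across technical, biological and donor/recipient replicates.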

[2] = system: S. aureus DSM 20231; test: as above
Summary of the method: as §1

[3] = system: S. aureus Newman; test: as above
Summary of the method: as §1

[4] = system: S. pneumoniae D39V; test: as above
Summary of the method: as §1

[5] = system: S. aureus DSM 20231; test: fitness (endpoint OD595 vs no drug) (fraction); higher = more growth
Summary of the method: (§2)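 Fitness was measured as bacterial growth in 384-well plates inoculated at OD595 0.01 (30 µl, or 55 µl for S. pneumoniae). Media were TSB, LB Lennox or CY, at 37 °C. OD595 was read every 30 min for 14 h and background-subtracted against the first reading. Fitness is OD595 at the transition into stationary phase divided by the robust mean of no-drug control wells, capped at 1.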

[6] = system: S. aureus Newman; test: as above
Summary of the method: as §2

[7] = system: S. pneumoniae D39V; test: as above
Summary of the method: as §2
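Wherever Bliss interaction score (quartile over a dose matrix) is given: first quartile when negative (synergy) and third quartile when positive (antagonism).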
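Wherever fitness (endpoint OD595 vs no drug) is given: OD595 on entry to stationary phase over no-drug wells; at most 1.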

CO/N=C(\C(=O)N[C@@H]1C(=O)N2C(C(=O)[O-])=C(C[N+]3(C)CCCC3)CS[C@H]12)c1csc(N)n1 [Cefepime] + CCN(CC)CCOC(=O)c1ccc(N)cc1 [Procaine]
Settings	Bliss interaction score
[1]	0.0389
[2]	-0.0573
[3]	-0.0735
[4]	0.0421

fitness
Settings	first compound 0.007 µg/mL	first compound 0.014 µg/mL	first compound 0.028 µg/mL	first compound 0.125 µg/mL	first compound 0.25 µg/mL	first compound 0.5 µg/mL
[5], partner 171 µg/mL	–	–	–	0.95	0.896	0.921
[6], partner 85.5 µg/mL	–	–	–	0.913	0.855	0.801
[6], partner 171 µg/mL	–	–	–	0.879	0.874	0.699
[6], partner 342 µg/mL	–	–	–	0.906	0.833	0.77
[7], partner 85.5 µg/mL	≥ 1	≥ 1	0.974	–	–	–
[7], partner 171 µg/mL	≥ 1	≥ 1	0.948	–	–	–
[7], partner 342 µg/mL	≥ 1	0.999	0.955	–	–	–

fitness, [7], one replicate
Settings	first compound 0.0078 µg/mL	first compound 0.0155 µg/mL	first compound 0.031 µg/mL
partner 85.5 µg/mL	≥ 1	0.943	0.244
partner 171 µg/mL	≥ 1	≥ 1	0.481
partner 342 µg/mL	≥ 1	≥ 1	0.635

CO/N=C(\C(=O)N[C@@H]1C(=O)N2C(C(=O)[O-])=C(C[N+]3(C)CCCC3)CS[C@H]12)c1csc(N)n1 [Cefepime] + CN1C2=CC=CC=C2N=C3C1=CC=CC3=O [Pyocyanin]
Settings	Bliss interaction score
[1]	0.0781
[2]	-0.078
[3]	0.0752
[4]	0.126

Settings	fitness
[5], first compound 0.125 µg/mL, partner 1.25 µg/mL	0.854
[5], first compound 0.125 µg/mL, partner 2.5 µg/mL	0.846
[5], first compound 0.125 µg/mL, partner 5 µg/mL	0.639
[5], first compound 0.25 µg/mL, partner 1.25 µg/mL	0.837
[5], first compound 0.25 µg/mL, partner 2.5 µg/mL	0.831
[5], first compound 0.25 µg/mL, partner 5 µg/mL	0.564
[5], first compound 0.5 µg/mL, partner 1.25 µg/mL	0.786
[5], first compound 0.5 µg/mL, partner 5 µg/mL	0.571
[6], first compound 0.125 µg/mL, partner 1.25 µg/mL	0.85
[6], first compound 0.125 µg/mL, partner 2.5 µg/mL	0.819
[6], first compound 0.125 µg/mL, partner 5 µg/mL	0.56
[6], first compound 0.25 µg/mL, partner 1.25 µg/mL	0.804
[6], first compound 0.25 µg/mL, partner 2.5 µg/mL	0.783
[6], first compound 0.25 µg/mL, partner 5 µg/mL	0.508
[6], first compound 0.5 µg/mL, partner 1.25 µg/mL	0.748
[6], first compound 0.5 µg/mL, partner 2.5 µg/mL	0.702
[6], first compound 0.5 µg/mL, partner 5 µg/mL	0.535
[7], first compound 0.007 µg/mL, partner 0.325 µg/mL	≥ 1
[7], first compound 0.007 µg/mL, partner 0.65 µg/mL	≥ 1
[7], first compound 0.007 µg/mL, partner 1.3 µg/mL	0.963
[7], first compound 0.014 µg/mL, partner 0.325 µg/mL	≥ 1
[7], first compound 0.014 µg/mL, partner 0.65 µg/mL	0.997
[7], first compound 0.014 µg/mL, partner 1.3 µg/mL	0.961
[7], first compound 0.028 µg/mL, partner 0.325 µg/mL	0.946
[7], first compound 0.028 µg/mL, partner 0.65 µg/mL	0.974
[7], first compound 0.028 µg/mL, partner 1.3 µg/mL	0.943

fitness, [7], one replicate
Settings	first compound 0.0078 µg/mL	first compound 0.0155 µg/mL	first compound 0.031 µg/mL
partner 0.325 µg/mL	≥ 1	≥ 1	0.786
partner 0.65 µg/mL	≥ 1	≥ 1	0.907

CO/N=C(\C(=O)N[C@@H]1C(=O)N2C(C(=O)[O-])=C(C[N+]3(C)CCCC3)CS[C@H]12)c1csc(N)n1 [Cefepime] + CN(N=O)C(=O)N[C@@H](C=O)[C@@H](O)[C@H](O)[C@H](O)CO [Streptozotocin]
Settings	Bliss interaction score
[1]	-0.0416
[2]	-0.0779
[3]	0.0304
[4]	-0.0319

fitness
Settings	first compound 0.007 µg/mL	first compound 0.014 µg/mL	first compound 0.028 µg/mL	first compound 0.125 µg/mL	first compound 0.25 µg/mL	first compound 0.5 µg/mL
[5], partner 0.15 µg/mL	–	–	–	0.789	0.705	0.721
[5], partner 0.3 µg/mL	–	–	–	0.667	0.645	0.713
[5], partner 0.6 µg/mL	–	–	–	0.589	0.588	0.61
[6], partner 0.15 µg/mL	–	–	–	0.814	0.765	0.682
[6], partner 0.3 µg/mL	–	–	–	0.717	0.641	0.66
[6], partner 0.6 µg/mL	–	–	–	0.505	0.482	0.506
[7], partner 1.2 µg/mL	0.964	0.935	0.824	–	–	–
[7], partner 2.4 µg/mL	0.987	0.993	0.923	–	–	–
[7], partner 4.8 µg/mL	0.966	0.983	0.868	–	–	–

fitness, [7], one replicate
Settings	first compound 0.0078 µg/mL	first compound 0.0155 µg/mL	first compound 0.031 µg/mL
partner 1.2 µg/mL	0.984	0.953	0.186
partner 2.4 µg/mL	≥ 1	0.937	0.289
partner 4.8 µg/mL	0.956	0.895	0.0426

CO/N=C(\C(=O)N[C@@H]1C(=O)N2C(C(=O)[O-])=C(C[N+]3(C)CCCC3)CS[C@H]12)c1csc(N)n1 [Cefepime] + CN[C@@H]1[C@H](O)[C@H](NC)[C@H]2O[C@@]3(O)C(=O)C[C@@H](C)O[C@H]3O[C@@H]2[C@H]1O [Spectinomycin]
Settings	Bliss interaction score
[1]	-0.0538
[2]	-0.0966
[3]	-0.0659
[4]	0.147

fitness
Settings	first compound 0.007 µg/mL	first compound 0.014 µg/mL	first compound 0.028 µg/mL	first compound 0.125 µg/mL	first compound 0.25 µg/mL	first compound 0.5 µg/mL
[5], partner 4 µg/mL	–	–	–	0.755	0.729	0.851
[5], partner 8 µg/mL	–	–	–	0.865	0.849	0.861
[5], partner 16 µg/mL	–	–	–	0.806	0.764	0.778
[6], partner 4 µg/mL	–	–	–	0.835	0.809	0.724
[6], partner 8 µg/mL	–	–	–	0.864	0.805	0.742
[6], partner 16 µg/mL	–	–	–	0.847	0.766	0.682
[7], partner 4 µg/mL	0.935	0.935	0.877	–	–	–
[7], partner 8 µg/mL	0.943	0.974	0.873	–	–	–
[7], partner 16 µg/mL	0.916	0.918	0.876	–	–	–

fitness, one replicate
Settings	first compound 0.0078 µg/mL	first compound 0.0155 µg/mL	first compound 0.031 µg/mL	first compound 0.125 µg/mL	first compound 0.25 µg/mL	first compound 0.5 µg/mL
[5], partner 32 µg/mL	–	–	–	0.736	0.669	0.647
[5], partner 64 µg/mL	–	–	–	0.0956	0.0736	0.0704
[6], partner 32 µg/mL	–	–	–	0.418	0.372	0.182
[6], partner 64 µg/mL	–	–	–	0.0932	0.0802	0.0762
[7], partner 4 µg/mL	≥ 1	0.988	0.577	–	–	–
[7], partner 8 µg/mL	0.999	≥ 1	0.716	–	–	–
